Experimental findings from patent US20060223812A1, “Treating neurodegenerative conditions” (MAX-PLANCK-GESELLSCHAFT ZUR FORDERUNGDER WISSENSCHAFTEN, …, priority 2004, published 2006) are described below.

In the assay the target is htau40 and tubulin dimer (Homo sapiens, UniProt P10636). Briefly: Light scattering, tau-promoted microtubule assembly. In kind it is biochemical. As to conditions: 60 μM compound, 10 μM tau, 30 μM tubulin. As for the experimental part: The repeat domain of tau is not only important for PHF aggregation but also for the physiological function of microtubule binding. Microtubule polymerisation assays were performed in the absence and presence of compounds (FIG. 9).
The ability of tau to promote microtubule assembly was monitored by light scattering at 350 nm in a Tecan spectrophotometer model Safire (Tecan, Crailsheim, Germany). Tau protein (10 μM) was mixed with tubulin dimer (30 μM) and GTP (1 mM) at 4° C. in polymerisation buffer (100 mM Na-PIPES pH 6.9, 1 mM EGTA, 1 mM MgSO4, 1 mM DTT), with a final volume of 40 μl. Htau40 and inhibitor compounds (60 μM) were added last. After rapid mixing, the samples were pipetted into a Greiner transparent flat bottom 384 well plate (4 mm path length), which was prewarmed at 37° C. The reaction was started by incubating the cooled components of the reaction at 37° C. The assembly of tubulin into microtubules was monitored over time by a change in turbidity. Three parameters were extracted from curves. The maximum turbidity at steady state, the rate of assembly, and the lag time between the temperature jump and the start of the turbidity rise.
FIG. 9: Effect of compounds on microtubule binding 30 μM tubulin dimer was incubated in a microtiter plate at 37° C. in the absence and presence of htau40 (10 μM) and 60 μM compound. Absorbance was taken at 350 nm and plotted versus time. […]

Structures are written as SMILES.

htau40 and tubulin dimer, sequence (P10636 1-441 isoform P10636-8): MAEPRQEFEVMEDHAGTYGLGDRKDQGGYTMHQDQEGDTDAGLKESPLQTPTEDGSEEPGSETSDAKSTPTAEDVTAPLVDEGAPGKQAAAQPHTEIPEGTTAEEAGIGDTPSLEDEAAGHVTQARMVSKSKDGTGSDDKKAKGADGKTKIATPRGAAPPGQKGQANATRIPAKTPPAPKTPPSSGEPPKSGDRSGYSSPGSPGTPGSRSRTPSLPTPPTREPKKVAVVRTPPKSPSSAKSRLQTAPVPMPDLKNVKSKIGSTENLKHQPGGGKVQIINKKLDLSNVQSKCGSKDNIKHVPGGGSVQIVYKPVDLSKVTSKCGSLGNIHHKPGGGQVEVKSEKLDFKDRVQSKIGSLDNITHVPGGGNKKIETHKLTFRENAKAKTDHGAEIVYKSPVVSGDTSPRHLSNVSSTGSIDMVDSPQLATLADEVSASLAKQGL

On to `Nc1c(/N=N/c2ccc(-c3ccc(/N=N/c4cc(S(=O)(=O)O)c5ccccc5c4N)cc3)cc2)cc(S(=O)(=O)O)c2ccccc12` [Congo Red], for which the “rate and extent of microtubule polymerisation” value is reported as “not significantly affected”.
